According to patent US8545876B1, “Modified drugs for use in liposomal nanoparticles” (The University of British Columbia, priority 2008, dated 2013):
Values after ≈ are worked out from the molar mass of the structure shown.

Tests used:
[1] = cited from earlier work
[2] = Stability in mouse plasma; assay type: in vitro ADME; conditions: 24 hour incubation in mouse plasma, 37° C.
Experimental: (§1) The chemical stability of the docetaxel derivatives was determined in aqueous solutions at different pH values and temperatures, and in biological media (mouse plasma). Aliquots of the docetaxel derivatives in acetonitrile were mixed with buffered citrate/HEPES (10 mM/10 mM) solutions at pH 4.0 and 7.5, or in mouse plasma in 1 mL glass HPLC sample vials sealed with Teflon-lined caps (final volume 0.25 ml, final docetaxel derivative concentration 50 µg/ml). Drug stability was determined 1, 4 and 24 hrs after incubation at 37° C. by UPLC-UV. At the indicated time points, a 3-fold excess of methanol/0.1% TFA was added to the sample. Citrate/HEPES buffered samples were analyzed by UHPLC as described above. For plasma samples, proteins precipitated by the addition of methanol/0.1% TFA pelleted by centrifugation at 14,000×g and supernatants were analyzed for the drug derivatives. Heparanized mouse plasma was diluted to 50% with 100 mM sodium-phosphate buffer to keep the pH constant throughout the experiment.
(§2) To be suitable for formulation in LN, derivatives must be stable at pH 4 (the pH present inside the LN carrier). In addition, prodrug derivatives should readily form the active drug under physiological conditions (e.g., at pH 7.4 and/or in the presence of endogenous enzymes) once released from the LN. […] TD1-3 and TD7 were selected for loading into LN and testing of such LN for drug release in vitro.

[3] = Chemical (hydrolytic) stability in buffered aqueous solutions; assay type: physicochemical; conditions: 24 hour incubation in pH 7.4 buffer, 37° C.
[4] = as above; assay type: physicochemical; conditions: 24 hour incubation in pH 4 buffer, 37° C.
Experimental: as §1, §2

[5] = Kinetic aqueous solubility of docetaxel derivatives in acetate buffer; conditions: for solubility: kinetic from dmso stock
Experimental: An aliquot was diluted 10-fold with 10 mM acetate buffer (pH 5) and the pH was checked and re-adjusted as necessary to reach pH 5. Alternatively, 10 mg of each compound was weighed into a glass vial, and 2 mL of 10 mM acetate buffer (pH 5) was added to the compound, followed by sonication of the suspension for minutes. The precipitate was then removed using Microcon MY100 filters (MW cut-off 100,000 Da) and the filtrate analyzed by UPLC-UV for drug content. The measured solubilities are kinetic solubilities determined under non-equilibrium conditions.

[6] = In vitro release of docetaxel derivatives from LN in mouse plasma; assay type: in vitro ADME; conditions: 37° C., same prodrug-to-lipid ratio
Experimental: In vitro release of docetaxel derivatives from LN was assessed in mouse plasma. Drug retention was determined by comparison of the initial prodrug-to-lipid ratio with the prodrug-to-lipid ratios found at different time points. […] LN formulations were mixed with mouse plasma at a final lipid concentration of 0.75 mg/ml, followed by incubation at 37° C. At various time points, aliquots were taken and run over Sephadex G-50 spin columns to remove the unentrapped prodrug (Pick, Arch. Biochem. Biophys., 212:186-194 (1981)). The derivative and lipid concentrations in the eluates were determined by UHPLC and liquid scintillation counting, respectively.

[7] = 10 mM acetate buffer with 10% (v/v) ethanol, pH 5, aqueous with cosolvent or surfactant or cyclodextrin
[8] = 10 mM acetate buffer, pH 5, aqueous buffer

In the case of `C[C@@H]1[C@H](O)[C@@H](C)/C=C/C=C/C=C/C=C/C=C/C=C/C=C/[C@H](O[C@@H]2O[C@H](C)[C@@H](O)[C@H](N)[C@@H]2O)C[C@@H]2O[C@](O)(C[C@@H](O)C[C@@H](O)[C@H](O)CC[C@@H](O)C[C@@H](O)CC(=O)O[C@H]1C)C[C@H](O)[C@H]2C(=O)O` [Amphotericin B], the “Solubility in Water” value [1] is given as 750 µg/mL (≈ 812 µM).

For `CC(C)CN(C[C@@H](O)[C@H](Cc1ccccc1)NC(=O)O[C@H]1CCOC1)S(=O)(=O)c1ccc(N)cc1` [Amprenavir], the “Solubility in Water” value [1] is listed as 36 µg/mL (≈ 71.2 µM).

In the case of `C[C@@H]1C[C@H]2[C@@H]3CCC4=CC(=O)C=C[C@]4(C)[C@@]3(F)[C@@H](O)C[C@]2(C)[C@@]1(O)C(=O)CO` [Dexamethasone], the “Solubility in Water” value [1] is listed as 89 µg/mL (≈ 227 µM).

For `C=C1/C(=C\C=C2/CCC[C@]3(C)[C@@H]([C@H](C)/C=C/[C@H](C)C(C)C)CC[C@@H]23)C[C@@H](O)C[C@@H]1O` [Doxercalciferol], the “Solubility in Water” value [1] is listed as “relatively insoluble”.

In the case of `COc1c(C)c2c(c(O)c1C/C=C(\C)CCC(=O)O)C(=O)OC2` [Mycophenolic acid], the “Solubility in Water” value [1] is listed as “insoluble”.

For `C[C@H](/C=C/[C@H](C)C(C)(C)O)[C@H]1CC[C@H]2/C(=C/C=C3C[C@@H](O)C[C@H](O)C3)CCC[C@]12C` [Paricalcitol], the “Solubility in Water” value [1] is listed as 6.8 µg/mL (≈ 16.3 µM).

In the case of `C[C@]12C=CC(=O)C=C1CC[C@@H]1[C@@H]2C(=O)C[C@@]2(C)[C@H]1CC[C@]2(O)C(=O)CO` [Prednisone], the “Solubility in Water” value [1] is given as 312 µg/mL (≈ 870 µM).

For `CC(C)c1cccc(C(C)C)c1O` [Propofol], the “Solubility in Water” value [1] is listed as 124 µg/mL (≈ 696 µM).

In the case of `CO[C@H]1C[C@@H]2CC[C@@H](C)[C@@](O)(O2)C(=O)C(=O)N2CCCC[C@H]2C(=O)O[C@H]([C@H](C)C[C@@H]2CC[C@@H](O)[C@H](OC)C2)CC(=O)[C@H](C)/C=C(\C)[C@@H](O)[C@@H](OC)C(=O)[C@H](C)C[C@H](C)/C=C/C=C/C=C/1C` [Sirolimus], the “Solubility in Water” value [1] is given as “insoluble in water”.

With `CC(=O)O[C@@]12CO[C@@H]1C[C@H](O)[C@@]1(C)C(=O)[C@H](O)C3=C(C)[C@@H](OC(=O)[C@H](OC(=O)CN4CCN(C)CC4)[C@@H](NC(=O)OC(C)(C)C)c4ccccc4)C[C@@](O)([C@@H](OC(=O)c4ccccc4)C12)C3(C)C` (stereo partly drawn) [TD2, N-methyl-piperazinyl acetic acid ester] the “Prodrug levels (% remaining), Plasma” value [2] was 31%, the “Prodrug levels (% remaining), pH 7.4” value [3] was 59% and the “Prodrug levels (% remaining), pH 4” value [4] was 99%. For the same molecule, the solubility [5, 7] was 25000 µg/mL (≈ 26400 µM), the solubility [5, 8] was 2000 µg/mL (≈ 2110 µM) and the “in vitro retention / release rate in DSPC/chol LN relative to TD1” value [6] was “released at a slightly faster rate”.

With `CC(=O)O[C@@]12CO[C@@H]1C[C@H](O)[C@@]1(C)C(=O)[C@H](O)C3=C(C)[C@@H](OC(=O)[C@H](OC(=O)CCCCN4CCN(C)CC4)[C@@H](NC(=O)OC(C)(C)C)c4ccccc4)C[C@@](O)([C@@H](OC(=O)c4ccccc4)C12)C3(C)C` (stereo partly drawn) [TD3, N-methyl-piperazinyl pentanoic acid ester] the “Prodrug levels (% remaining), Plasma” value [2] was 29%, the “Prodrug levels (% remaining), pH 7.4” value [3] was 69% and the “Prodrug levels (% remaining), pH 4” value [4] was 99%. The solubility [5, 7] was 4100 µg/mL (≈ 4140 µM), the solubility [5, 8] was 2500 µg/mL (≈ 2520 µM) and the “in vitro retention / release rate in DSPC/chol LN relative to TD1” value [6] was “released at a slightly faster rate”.

For `CC(=O)O[C@@]12CO[C@@H]1C[C@H](O)[C@@]1(C)C(=O)[C@H](O)C3=C(C)[C@@H](OC(=O)[C@H](OC(=O)CCCN4CCOCC4)[C@@H](NC(=O)OC(C)(C)C)c4ccccc4)C[C@@](O)([C@@H](OC(=O)c4ccccc4)C12)C3(C)C` (stereo partly drawn) [TD4, Morpholino butanoic acid ester], the “Prodrug levels (% remaining), Plasma” value [2] was 64%, the “Prodrug levels (% remaining), pH 7.4” value [3] was 92% and the “Prodrug levels (% remaining), pH 4” value [4] was 98%. The solubility [5, 8] was 120 µg/mL (≈ 125 µM) and the “Solub. in 10 mM acetate pH 5” value ([5]; pH 5, no ethanol, kinetic solubility) was “extremely low solubility”.

In the case of `CC(=O)O[C@@]12CO[C@@H]1C[C@H](O)[C@@]1(C)C(=O)[C@H](O)C3=C(C)[C@@H](OC(=O)[C@H](OC(=O)CN4CCOCC4)[C@@H](NC(=O)OC(C)(C)C)c4ccccc4)C[C@@](O)([C@@H](OC(=O)c4ccccc4)C12)C3(C)C` (stereo partly drawn) [TD5, Morpholino acetic acid ester], the “Prodrug levels (% remaining), Plasma” value [2] is reported as 45%, the “Prodrug levels (% remaining), pH 7.4” value [3] is reported as 64% and the “Prodrug levels (% remaining), pH 4” value [4] is reported as 81%. The solubility [5, 7] was 300 µg/mL (≈ 321 µM) and the solubility [5, 8] was 140 µg/mL (≈ 150 µM).

With `CC(=O)O[C@@]12CO[C@@H]1C[C@H](O)[C@@]1(C)C(=O)[C@H](O)C3=C(C)[C@@H](OC(=O)[C@H](OC(=O)CCN4CCOCC4)[C@@H](NC(=O)OC(C)(C)C)c4ccccc4)C[C@@](O)([C@@H](OC(=O)c4ccccc4)C12)C3(C)C` (stereo partly drawn) [TD6, Morpholino propionic acid ester] the “Prodrug levels (% remaining), Plasma” value [2] was 0%, the “Prodrug levels (% remaining), pH 7.4” value [3] was 18% and the “Prodrug levels (% remaining), pH 4” value [4] was 68%. The solubility [5, 7] was 1500 µg/mL (≈ 1580 µM) and the solubility [5, 8] was 480 µg/mL (≈ 506 µM).

For `CC(=O)O[C@@]12CO[C@@H]1C[C@H](O)[C@@]1(C)C(=O)[C@H](O)C3=C(C)[C@@H](OC(=O)[C@H](OC(=O)CCCN4CCCCC4)[C@@H](NC(=O)OC(C)(C)C)c4ccccc4)C[C@@](O)([C@@H](OC(=O)c4ccccc4)C12)C3(C)C` (stereo partly drawn) [TD7, Piperidinyl butanoic acid ester], the “Prodrug levels (% remaining), Plasma” value [2] was 8%, the “Prodrug levels (% remaining), pH 7.4” value [3] was 13% and the “Prodrug levels (% remaining), pH 4” value [4] was 94%. For the same molecule, the solubility ([5]; pH 5, aqueous buffer) was 1900 µg/mL (≈ 1980 µM) and the “in vitro retention / release rate in DSPC/chol LN relative to TD1” value [6] was “released at a rate mirroring that of TD1”.

With `CC(=O)O[C@@]12CO[C@@H]1C[C@H](O)[C@@]1(C)C(=O)[C@H](O)C3=C(C)[C@@H](OC(=O)[C@H](OC(=O)CN4CCCCC4)[C@@H](NC(=O)OC(C)(C)C)c4ccccc4)C[C@@](O)([C@@H](OC(=O)c4ccccc4)C12)C3(C)C` (stereo partly drawn) [TD8, Piperidinyl acetic acid ester] the “Prodrug levels (% remaining), Plasma” value [2] was 4%, the “Prodrug levels (% remaining), pH 7.4” value [3] was 36% and the “Prodrug levels (% remaining), pH 4” value [4] was 78%. For the same molecule, the solubility ([5]; pH 5, aqueous buffer) was 500 µg/mL (≈ 536 µM).

With `CC(=O)O[C@@]12CO[C@@H]1C[C@H](O)[C@@]1(C)C(=O)[C@H](O)C3=C(C)[C@@H](OC(=O)[C@H](OC(=O)CCCCN4CCCCC4)[C@@H](NC(=O)OC(C)(C)C)c4ccccc4)C[C@@](O)([C@@H](OC(=O)c4ccccc4)C12)C3(C)C` (stereo partly drawn) [TD9, Piperidinyl pentanoic acid ester] the “Prodrug levels (% remaining), Plasma” value [2] was “no effect”, the “Prodrug levels (% remaining), Plasma” value ([2]; listed as TD-9) was 60% and the “Prodrug levels (% remaining), pH 7.4” value [3] was 65%. The “Prodrug levels (% remaining), pH 4” value [4] was 99%, the solubility ([5]; pH 5, aqueous buffer) was 1000 µg/mL (≈ 1030 µM) and the solubility ([5]; pH 5, aqueous with cosolvent or surfactant or cyclodextrin) was 2300 µg/mL (≈ 2360 µM).

For `CC(=O)O[C@@]12CO[C@@H]1C[C@H](OC(=O)CCCN1CCN(C)CC1)[C@@]1(C)C(=O)[C@H](O)C3=C(C)[C@@H](OC(=O)[C@H](O)[C@@H](NC(=O)OC(C)(C)C)c4ccccc4)C[C@@](O)([C@@H](OC(=O)c4ccccc4)C12)C3(C)C` (stereo partly drawn) [TD10, 7-O-(N-methyl-piperazinylbutanoic acid ester)], the solubility ([5]; pH 5, aqueous buffer) was 3000 µg/mL (≈ 3070 µM).

For `C=CC[C@@H]1/C=C(\C)C[C@H](C)C[C@H](OC)[C@H]2O[C@@](O)(C(=O)C(=O)N3CCCC[C@H]3C(=O)O[C@H](/C(C)=C/[C@@H]3CC[C@@H](O)[C@H](OC)C3)[C@H](C)[C@@H](O)CC1=O)[C@H](C)C[C@@H]2OC` [Tacrolimus], the “Solubility in Water” value [1] is listed as “insoluble”.

In the case of `CCCCC(=O)OCC(=O)[C@]1(O)Cc2c(O)c3c(c(O)c2[C@@H](O[C@H]2C[C@H](NC(=O)C(F)(F)F)[C@H](O)[C@H](C)O2)C1)C(=O)c1c(OC)cccc1C3=O` [Valrubicin], the “Solubility in Water” value [1] is listed as “insoluble”.
